Data: patent US11679984B2, “Composite sols” (Prebona AB, priority 2016, dated 2023)

Tested on: fungal growth
Test: Biocidal function: fungal growth on brushed bread slices
Assay type: cell-based, fungi
Details: French bread slices brushed on all sides, 14 days, dark, 18-20° C.
Text: In this example the following solutions/materials were used: • 1. Deionized water • 2. Solution CuCl2.2H2O in deionized water, 571 ppm Cu • 3. Solution CuCl2.2H2O in deionized water, 1286 ppm Cu • 4. Cu containing sol of example 5 in Table 7a, 571 ppm Cu • 5. Cu containing sol of example 6 in Table 7a, 1286 ppm Cu
Slices of French bread from a local baker were used as substrates for fungal growth. The bread slices were as brushed on all sides with solutions 1-5. The bread slices on dinner plates were put in plastic bags (one slice on a plate to a bag), which were in a dark, closed room where the temperature varied between 18 and 20° C. over the day. After 14 days, the untreated bread slice was severely befouled and the slice seemed to be completely invaded by fungi.

Compound | Fungal growth on treated bread slice
O.O.[Cl-].[Cl-].[Cu+2] [Cu solution containing 1286 ppm Cu, CuCl2.2H2O] | Only little fungal growth

Tested on: not given
Test: not given
Details: 20° C.; cited from earlier work

Compound | Aqueous solubility [µM]
Pb(OH)2 | 6.7
Fe(OH)2 | 5.8
Fe(OH)3 | 0.0002
Cu(OH)2 | 0.17
Cd(OH)2 | 18
Gd(OH)3 | 0.52
